Results on 7 compounds are retold here after ChEMBL document CHEMBL3243982, “Synthesis of pyrimido[5,4-c]quinolines and related quinolines as potential antimalarials” (J Med Chem, 1978).

Active and inactive are the calls of the source. The calls are words filed in the database; no cut-off is given here.

The test system of one test is Plasmodium gallinaceum. In words: Antimalarial activity against Plasmodium gallinaceum at 320 mg/kg by sporozoite-induced chick test. Format: functional, organism-based. More on the design: dose 320 mg/kg.
Consider `CCN1Cc2c(/C=C/c3ccccc3)nc3ccc(OC)cc3c2N(c2cccc(Cl)c2)C1`, for which the result was inactive.

The next test relates to Plasmodium berghei. In words: Antimalarial activity against blood-induced Plasmodium berghei infected in mouse at 640 mg/kg. In kind it is functional, organism-based. More on the design: dose 640 mg/kg.
Turning to `CCNCc1c(C)nc2ccc(OC)cc2c1Nc1cccc(Cl)c1`, the result was inactive. Same read-out and setting: the value for `CCN(CC)Cc1c(C)[nH]c2cc(Cl)ccc2c1=O` was “inactive”; that for `CCNCc1c(C)[nH]c2ccc(OC)cc2c1=O` was “inactive”; that for `CCN1Cc2c(C)nc3ccc(C)cc3c2N(c2cccc(Cl)c2)C1` was “inactive”. As for `CCNCc1c(C)[nH]c2ccc(C)cc2c1=O`, the result was inactive. Same read-out and setting: the value for `CCN1Cc2c(C)nc3ccc(OC)cc3c2N(c2cccc(Cl)c2)C1` was “inactive”; that for `CCN1Cc2c(/C=C/c3ccccc3)nc3ccc(OC)cc3c2N(c2cccc(Cl)c2)C1` was “inactive”.
